Measured values taken from patent US20220315624A1, “THIOSTREPTON ANALOGS AND METHODS OF MAKING AND USING SAME” (YALE UNIVERSITY, priority 2019, published 2022).
Converted amounts (≈) assume the structure as drawn.

Key:
E. coli ATCC 25922 [1] = settings: range in parentheses; cited from earlier work
[2] = tested on: S. aureus ATCC 29213 MSSA; settings: range in parentheses; cited from earlier work
[3] = tested on: E. faecalis ATCC 29212 VSE; assay: MIC broth microdilution; format: cell-based; settings: Enterococcus faecalis, ATCC29212; E. faecalis ATCC 29212 VSE; CAMHB; read-out: MIC
Method: (§1) Twenty-four test agents were shipped to Micromyx and stored at −20° C. until assayed. The compounds were dissolved in 100% DMSO at 6.46 mg/mL prior to testing. Comparator drugs were supplied by Micromyx and were handled as described below:
(§2) The test organisms for the assay were recent clinical isolates or reference strains acquired from the American Type Culture Collection (ATCC; Manassas, Va.). Upon receipt, the isolates were streaked onto Trypticase Soy Agar II+5% sheep blood (TSAB). Colonies were harvested from the plates and a cell suspension was prepared in Trypticase Soy Broth containing cryoprotectant. Aliquots were then frozen at −80° C. Prior to the assay, the frozen seeds of all bacterial isolates to be tested were thawed and streaked for isolation onto TSAB (BD/BBL, Sparks, Md.; Lot No. 9011894), and were incubated overnight at 35° C.
(§3) The test medium for all isolates was cation-adjusted Mueller Hinton broth (CAMHB; BD/BBL; Lot No. 8190586). CAMHB (Cation Adjusted Mueller Hinton Broth) was supplemented with 3% (v/v) lysed horse blood (LHB; Hemostat, Dixon, Calif.; Lot No. 474990) for the testing of streptococci.
(§4) MIC values were determined using a broth microdilution method as recommended by CLSI. Automated liquid handlers (Multidrop 384, Labsystems, Helsinki, Finland; Biomek 2000 and Biomek F/X, Beckman Coulter, Fullerton Calif.) were used to conduct serial dilutions and make liquid transfers.
(§5) The wells of standard 96-well microdilution plates (Costar 3795, Corning Inc., Corning, N.Y.) were filled with 150 μL of the appropriate diluent in columns 2-12 on the Multidrop 384 (DMSO for the thiostrepton analogs, deionized H2O for vancomycin and ceftazidime). These plates were used to prepare the drug “mother plate” which provided the serial drug dilutions for the replicate “daughter plates”. The compounds (300 μL) were dispensed at 101× the highest concentration to be tested into the appropriate row of the “mother plate”. The Biomek 2000 was used to transfer 150 μL of each stock solution from the wells in Column 1 of the mother plate to make ten subsequent 2-fold serial dilutions. The wells of Column 12 contained no drug and served as the organism growth control wells. The daughter plates were loaded with 190 μL of test medium using the Multidrop 384.
(§6) The daughter plates were prepared on the Biomek F/X instrument which transferred […] of drug solution from each well of the mother plate to each corresponding well of each daughter plate in a single step. The wells of the daughter plates ultimately contained 190 μL of media, 2 μL of drug solution, and 10 μL of inoculum prepared as described below. The final concentration of DMSO (if used as a solvent) in the test well was 1%.
(§7) A standardized inoculum of each organism was prepared per CLSI methods. A suspension of organisms from a fresh plate was prepared in CAMHB to equal the turbidity of a 0.5 McFarland standard. The suspensions were diluted 1:20 in CAMHB, or in the case of streptococci CAMHB with LHB. The inoculum for each organism was dispensed into sterile reservoirs divided by length (Beckman Coulter), and the Biomek 2000 was used to inoculate the plates. Daughter plates were placed on the Biomek 2000 work surface reversed so that inoculation took place from low to high drug concentration. The Biomek 2000 delivered 10 μL of standardized inoculum into each well. These dilutions yielded a final cell concentration in the daughter plates of approximately 5.0×10^5 CFU/mL.
(§8) Plates were stacked 3 high, covered with a lid on the top plate, placed in plastic bags, and incubated at 35° C. for 16-20 hr for all organisms except streptococci which were incubated for 20-24 hr. Following incubation, the microplates were removed from the incubator and viewed from the bottom using a plate viewer. The MIC was read and recorded as the lowest concentration of drug that inhibited visible growth of the organism. […]

E. coli ATCC 25922 [4] = assay: MIC broth microdilution; format: cell-based; settings: Escherichia coli, ATCC25922; E. coli ATCC 25922; CAMHB; read-out: MIC
Method: as §1, §2, §3, §4, §5, §6, §7, §8

S. pyogenes ATCC 19615 = assay: MIC broth microdilution; format: cell-based; settings: Streptococcus pyogenes, ATCC19615, 20 h; S. pyogenes ATCC 19615; CAMHB with 3% lysed horse blood; read-out: MIC
Method: as §1, §2, §3, §4, §5, §6, §7, §8

E. faecalis MMX 486 VRE = assay: MIC broth microdilution; format: cell-based; settings: Enterococcus faecalis; E. faecalis MMX 486 VRE; CAMHB; read-out: MIC
Method: as §1, §2, §3, §4, §5, §6, §7, §8

[5] = tested on: S. pneumoniae ATCC 49619 PISP; assay: MIC broth microdilution; format: cell-based; settings: Streptococcus pneumoniae, ATCC49619, 20 h; S. pneumoniae ATCC 49619 PISP; CAMHB with 3% lysed horse blood; read-out: MIC
Method: as §1, §2, §3, §4, §5, §6, §7, §8

S. aureus MMX 8088 MRSA = assay: MIC broth microdilution; format: cell-based; settings: Staphylococcus aureus; S. aureus MMX 8088 MRSA; CAMHB; read-out: MIC
Method: as §1, §2, §3, §4, §5, §6, §7, §8

E. faecium MMX 708 VSE = assay: MIC broth microdilution; format: cell-based; settings: Enterococcus faecium, MMX708VSE; E. faecium MMX 708 VSE; CAMHB; read-out: MIC
Method: as §1, §2, §3, §4, §5, §6, §7, §8

E. faecium MMX 485 VRE = assay: MIC broth microdilution; format: cell-based; settings: Enterococcus faecium; E. faecium MMX 485 VRE; CAMHB; read-out: MIC
Method: as §1, §2, §3, §4, §5, §6, §7, §8

[6] = tested on: S. aureus ATCC 29213 MSSA; assay: MIC broth microdilution; format: cell-based; settings: Staphylococcus aureus; S. aureus ATCC 29213 MSSA; CAMHB; read-out: MIC
Method: as §1, §2, §3, §4, §5, §6, §7, §8

[7] = tested on: E. faecalis and E. faecium; assay: MIC broth microdilution, summary over enterococci; format: cell-based; settings: across the evaluated enterococci, VSE and VRE; read-out: MIC values against E. faecalis and E. faecium
Method: as §1, §2, §3, §4, §5, §6, §7, §8

Gram-positive cocci = assay: MIC broth microdilution, overall summary; format: cell-based; settings: summary of MIC testing
Method: as §1, §2, §3, §4, §5
The daughter plates were prepared on the Biomek F/X instrument which transferred […] of drug solution from each well of the mother plate to each corresponding well of each daughter plate in a single step. […]
as §8, with “Following incubation, the microplates were removed from the incubator and viewed from the bottom using a plate viewer.” left out

[8] = Un-inoculated solubility control plate (drug precipitation); format: physicochemical; settings: at 64 μg/mL in CAMHB in LHB
[9] = Aqueous solubility analysis in MOPS buffer; format: physicochemical; settings: aqueous 10 mM MOPS buffer, thermodynamic from solid; after 24 hours in 10 mM aqueous MOPS buffer, pH 7.2
Method: A 2 dram vial was loaded with ˜0.5 mg of a thiostrepton derivative and suspended in ˜4 mL of aqueous 10 mM MOPS buffer (pKa 7.2). The suspension was stirred vigorously for 24 h to ensure equilibration, then filtered through a […] centrifuge filtration unit. A 3.0 mL aliquot was concentrated, and the dried residue was diluted with 0.30 mL of 1:1 1,4-dioxane/H2O (10× original concentration necessitated by detection limits). The total UV absorbance (200-300 nm) was measured in triplicate by UPLC runs with a photodiode array detector. A calibration curve for each compound was created using data points from 3 trials each of concentrations in 1:1 1,4-dioxane/H2O ranging from […]. These concentrations were plotted against their respective average absorbances. The experimental concentration of each compound was calculated by dividing the found μg/mL value by the residue concentration factor of 10 to yield the actual solubility value.

S. aureus isolates = assay: MIC broth microdilution, S. aureus isolates; format: cell-based; settings: Staphylococcus aureus; across MSSA and MRSA isolates; read-out: MIC values against S. aureus isolates
Method: as §1, §2, §3, §4, §5, §6, §7, §8

[10] = tested on: S. pneumoniae and S. pyogenes isolates; assay: MIC broth microdilution, summary over streptococci; format: cell-based; settings: across evaluated streptococci; read-out: MIC values against S. pneumoniae and S. pyogenes isolates
Method: as §1, §2
The test medium for all isolates was cation-adjusted Mueller Hinton broth (CAMHB; BD/BBL; Lot No. 8190586). […]
MIC values were determined using a broth microdilution method as recommended by CLSI. […]
as §8, with “Following incubation, the microplates were removed from the incubator and viewed from the bottom using a plate viewer.” left out

MIC [3] [µg/mL] | MIC (E. coli ATCC 25922 [4]) [µg/mL] | MIC (S. pyogenes ATCC 19615) [µg/mL] | MIC (E. faecalis MMX 486 VRE) [µg/mL] | MIC [5] [µg/mL] | MIC (S. aureus MMX 8088 MRSA) [µg/mL] | MIC (E. faecium MMX 708 VSE) [µg/mL] | MIC (E. faecium MMX 485 VRE) [µg/mL] | MIC [6] [µg/mL] | MIC [7] [µg/mL] | Precipitation in CAMHB in LHB [8] | solubility at 24 h [9] [µg/mL] | MIC (S. aureus isolates) [µg/mL] | MIC [10] [µg/mL] | SMILES | CLSI quality control range (MIC) (E. coli ATCC 25922 [1]) [µg/mL] | CLSI quality control range (MIC) [2] [µg/mL] | Activity among the evaluated analogs / against evaluated Gram-positive cocci (summary in words) (Gram-positive cocci)
> 32 | 0.25 (≈ 0.457 µM) | 0.12 (≈ 0.22 µM) | > 32 | 0.5 (≈ 0.915 µM) | > 32 | > 32 | > 32 | 8 (≈ 14.6 µM) |  |  |  |  |  | CC(C)(O/N=C(\C(=O)N[C@@H]1C(=O)N2C(C(=O)[O-])=C(C[n+]3ccccc3)CS[C@H]12)c1csc(N)n1)C(=O)O [Ceftazidime, reference compound] | 0.06 to 0.5 | 4 to 16 | 
16 (≈ 8.04 µM) | > 64 | 0.25 (≈ 0.126 µM) | 16 (≈ 8.04 µM) | 0.25 (≈ 0.126 µM) | 16 (≈ 8.04 µM) | 16 (≈ 8.04 µM) | 8 (≈ 4.02 µM) | 16 (≈ 8.04 µM) | 8 to 16 (≈ 4.02 to 8.04 µM) | distinct precipitation | 11 (≈ 5.53 µM) | 16 (≈ 8.04 µM) | 0.25 (≈ 0.126 µM) | C=C(NC(=O)c1csc(C2=N[C@@H]3c4csc(n4)[C@H]4NC(=O)c5csc(n5)[C@H]([C@](C)(O)[C@@H](C)O)NC(=O)C5CSC(=N5)/C(=C/C)NC(=O)[C@H]([C@@H](C)O)NC(=O)c5csc(n5)[C@]3(CC2)NC(=O)[C@H](C)NC(=O)C(=C)NC(=O)[C@H](C)NC(=O)[C@H]([C@@H](C)CC)N[C@@H]2C=Cc3c([C@H](C)O)cc(nc3[C@H]2O)C(=O)O[C@@H]4C)n1)C(=O)NC(=CNC(=O)c1cccc(/C=N/OC2O[C@H](CO)[C@@H](O)[C@H](O)[C@H]2O)c1)C(N)=O (some centres unmarked) [RJS-16] |  |  | least activity
